Data published in paper PMC6010053, “The hop-derived compounds xanthohumol, isoxanthohumol and 8-prenylnaringenin are tight-binding inhibitors of human aldo-keto reductases 1B1 and 1B10” (Journal of Enzyme Inhibition and Medicinal Chemistry, 2018).

How the values were obtained:
AKR1B1 [1] = tested on: AKR1B1; set-up: method as in earlier work; conditions: glyceraldehyde as substrate; cited from earlier work
AKR1B1 [2] = molecular target: T1, AKR1B1 (Homo sapiens, UniProt P15121); test: AKR1B1-catalysed glyceraldehyde (GA) reduction, NADPH absorbance decrease at 340 nm; assay type: biochemical; conditions: for IC50 / Ki: GA at KM 50 μM, mean ± SD; for IC50: 200 μM NADPH, pH 7.4, 37 °C, at least three experiments; for Ki: Morrison equation for tight-binding inhibitors; for mode of inhibition with respect to the co-factor binding site for NADPH: glyceraldehyde reduction, IC50 as a function of NADPH concentration
T1 construct: 6xHis; made in house; host or cells: E. coli BL21 (DE3)
Protocol: (§1) The recombinant enzymes AKR1A1, AKR1B1 and AKR1B10 were prepared in an Escherichia coli expression system according to previously published methods: AKR1A1 was a gentle gift from Prof. Dr. Vladimir Wsol[63]; AKR1B1 was a friendly gift from Dr. Nina Kassner; information about production and purification of AKR1B10 has been published before. Genetic information on the specific inserts of all obtained plasmids was verified by sequencing (MWG Eurofins). The plasmids were then transformed into E. coli BL21 (DE3) cells. For over-expression of 6 × His-tagged enzymes, a 400-ml culture (containing the appropriate antibiotic; plasmid dependent) was grown to an optical density of 0.6 at 600 nm at 37 °C. Protein over-expression was induced by adding isopropyl-1-thio-galactopyranoside (IPTG) to the culture medium (final concentration of 1 mM). After 3 h, cells were harvested by centrifugation (6000 g, 15 min) and re-suspended in 20 ml PBS-I buffer (20 mM NaH2PO4, 500 mM NaCl, 10 mM imidazole, pH 7.4). Cell disruption was performed by ultrasonication with cooling on ice, to avoid heating. The sample was subsequently centrifuged at 100,000 g at 4 °C for 1 h. The obtained supernatants, containing the target protein were purified using Ni-affinity chromatography on an ÄKTA-Purifier System (Amersham Pharmacia Biotech, Uppsala, Sweden). Purification progress was monitored by SDS-PAGE of the obtained fractions (not shown). Enzyme concentrations were determined using a Qubit 2.0 fluorometric quantitation system (Life Technologies, Carlsbad, CA, USA) according to the manufacturer’s instructions.
Catalytic properties were determined by measuring the decrease in absorbance at 340 nm at 37 °C (Cary 100 scan photometer, Varian, Pal Alto, CA, USA). […] Final enzyme concentrations in the assay ranged from 583 nM (AKR1B10) to 712 nM (AKR1B1). For inhibitor selectivity studies on AKR1A1, AKR1B1 and AKR1B10 stock solutions of the inhibitors XN, XI and 8-PN were prepared in dimethyl sulfoxide (DMSO). The final concentration of DMSO in the assay was ≤0.5%. Activity measurements were started without pre-incubation by adding an appropriate amount of enzyme. When collecting data for dose–response curves, initial velocities of the glyceraldehyde reduction (concentration at KM; enzyme specific) in the presence of inhibitors were assayed as described above. The percentage of inhibition was calculated considering the activity in the absence of inhibitor to be 100%.
(§2) Initially, the half maximal inhibitory concentrations (IC50 values) were determined for each inhibitor in the presence of each enzyme, using the shared substrate glyceraldehyde (set to their specific Km; 3.6 mM, 50 µM and 4 mM for AKR1A1, AKR1B1 and AKR1B10, respectively) to assess specificity among the structurally similar members of the AKR-superfamily. For IC50 determination, experimental data were normalised and fitted to a sigmoidal curve as implemented in GraphPad6 (GraphPad Software Inc., La Jolla, CA, USA). Whenever tight-binding inhibition was observed, the inhibition constant Ki was determined by fitting inhibition data to the Morrison equation as implemented in GraphPad Prism6 (GraphPad Software Inc., La Jolla, CA, USA)[65], using non-linear regression.

AKR1B10 [3] = molecular target: T2, AKR1B10 (Homo sapiens, UniProt O60218); test: AKR1B10-catalysed farnesal reduction (physiological substrate); assay type: biochemical; conditions: for Ki / IC50: farnesal at KM 5 μM, mean ± SD; for Ki: Morrison equation; for IC50: at least three experiments; for mode of inhibition: with respect to the substrate farnesal, IC50 at five substrate concentrations
T2 construct: 6xHis; made in house; host or cells: E. coli BL21 (DE3)
T2 sequence (O60218 whole entry): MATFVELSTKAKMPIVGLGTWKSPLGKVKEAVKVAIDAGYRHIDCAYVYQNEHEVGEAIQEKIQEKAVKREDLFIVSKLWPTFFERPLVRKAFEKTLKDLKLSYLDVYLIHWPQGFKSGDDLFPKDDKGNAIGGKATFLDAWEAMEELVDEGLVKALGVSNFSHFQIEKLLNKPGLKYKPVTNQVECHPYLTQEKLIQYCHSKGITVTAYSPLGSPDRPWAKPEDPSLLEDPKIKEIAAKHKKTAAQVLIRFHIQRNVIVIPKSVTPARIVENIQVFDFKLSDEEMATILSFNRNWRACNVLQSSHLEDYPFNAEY
Protocol: (§3) Catalytic properties were determined by measuring the decrease in absorbance at 340 nm at 37 °C (Cary 100 scan photometer, Varian, Pal Alto, CA, USA). A reaction mixture without inhibitor consisted of different concentrations of substrate (see Table 1 for details), 200 μM NADPH, 0.1 M NaH2PO4 buffer (pH 7.4) and an appropriate amount of enzyme in a total assay volume of 0.8 ml. Final enzyme concentrations in the assay ranged from 583 nM (AKR1B10) to 712 nM (AKR1B1). For inhibitor selectivity studies on AKR1A1, AKR1B1 and AKR1B10 stock solutions of the inhibitors XN, XI and 8-PN were prepared in dimethyl sulfoxide (DMSO). The final concentration of DMSO in the assay was ≤0.5%. Activity measurements were started without pre-incubation by adding an appropriate amount of enzyme. When collecting data for dose–response curves, initial velocities of the glyceraldehyde reduction (concentration at KM; enzyme specific) in the presence of inhibitors were assayed as described above. The percentage of inhibition was calculated considering the activity in the absence of inhibitor to be 100%.
as §2
(§4) In order to verify the inhibitory potency, enzyme-specific physiological substrates for AKR1B1 (glucose, KM = 32 mM) and AKR1B10 (farnesal; KM = 5 µM) were used to determine inhibition parameters. Enzyme inhibition parameters were assayed as described above. The inhibition mechanism of each compound for the respective enzymes was analysed by plotting IC50 values at different substrate concentrations (at least five inhibitor and substrate concentrations)[65]^,[66]. All data obtained were plotted and analysed using GraphPad Prism6 (GraphPad Software Inc., La Jolla, CA, USA).

AKR1A1 = molecular target: T3, AKR1A1 (Homo sapiens, UniProt P14550); test: AKR1A1-catalysed glyceraldehyde reduction (inhibitor selectivity); assay type: biochemical
T3 construct: 6xHis; made in house; host or cells: E. coli BL21 (DE3)
T3 sequence (P14550 1-325): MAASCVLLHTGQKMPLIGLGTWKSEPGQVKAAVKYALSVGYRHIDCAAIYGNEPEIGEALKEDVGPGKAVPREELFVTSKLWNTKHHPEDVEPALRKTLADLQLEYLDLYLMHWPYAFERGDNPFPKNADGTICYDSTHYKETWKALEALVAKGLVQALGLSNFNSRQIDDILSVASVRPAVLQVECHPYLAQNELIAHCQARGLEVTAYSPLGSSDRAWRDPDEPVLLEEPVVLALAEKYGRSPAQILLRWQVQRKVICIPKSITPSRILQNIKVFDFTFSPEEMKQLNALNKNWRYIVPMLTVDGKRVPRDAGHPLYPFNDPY
Protocol: as §1
Catalytic properties were determined by measuring the decrease in absorbance at 340 nm at 37 °C (Cary 100 scan photometer, Varian, Pal Alto, CA, USA). A reaction mixture without inhibitor consisted of different concentrations of substrate (see Table 1 for details), 200 μM NADPH, 0.1 M NaH2PO4 buffer (pH 7.4) and an appropriate amount of enzyme in a total assay volume of 0.8 ml. […] The percentage of inhibition was calculated considering the activity in the absence of inhibitor to be 100%. […]

AKR1B1 [4] = molecular target: T1, AKR1B1; test: AKR1B1-catalysed glucose reduction (physiological substrate); assay type: biochemical; conditions: for Ki / IC50: glucose at KM 32 mM, mean ± SD; for Ki: Morrison equation; for IC50: at least three experiments; for mode of inhibition: with respect to the substrate glucose, IC50 at five substrate concentrations
Protocol: as §3, §2, §4

AKR1B10 [5] = molecular target: T2, AKR1B10; test: AKR1B10-catalysed glyceraldehyde (GA) reduction, NADPH absorbance decrease at 340 nm; assay type: biochemical; conditions: GA at KM 4 mM, mean ± SD; for IC50: 200 μM NADPH, pH 7.4, 37 °C, at least three experiments; for Ki: Morrison equation for tight-binding inhibitors
Protocol: as §1, §3, §2

AKR1B10 [6] = tested on: AKR1B10; set-up: method as in PMID 26844556, PMID 27359042, PMID 28003428, PMID 26968129, PMID 21561086; conditions: selective inhibitors identified so far; cited from earlier work

| IC50 (AKR1B1 [2]) [µM] | Ki (AKR1B1 [2]) [µM] | mode of inhibition with respect to the co-factor binding site for NADPH (AKR1B1 [2]) | inhibitory potency, times greater as compared to that of 6-PN (AKR1B1 [2]; ratio of AKR1B1 IC50 values, glyceraldehyde as substrate) [times] | Ki (AKR1B10 [3]) [nM] | IC50 (AKR1B10 [3]) [nM] | mode of inhibition (AKR1B10 [3]) | effect on the activity of AKR1A1 (AKR1A1) | Ki (AKR1B1 [4]) [nM] | IC50 (AKR1B1 [4]) [nM] | mode of inhibition (AKR1B1 [4]) | IC50 (AKR1B10 [5]) [nM] | Ki (AKR1B10 [5]) [nM] | Compound | IC50 (AKR1B1 [1]) [nM] | IC50 (AKR1B10 [6]) [nM] |
| --- | --- | --- | --- | --- | --- | --- | --- | --- | --- | --- | --- | --- | --- | --- | --- |
| 0.81 ± 0.03 | 0.3 ± 0.03 | non-competitive | 7.6 | 1950 ± 120 | 3960 ± 170 | uncompetitive | not affecting | 710 ± 90 | 1870 ± 90 | uncompetitive | 990 ± 40 | 520 ± 50 | CC(C)=CCc1c(O)cc(O)c2c1O[C@H](c1ccc(O)cc1)CC2=O [8-PN, 8-prenylnaringenin] |  |  |
| 0.57 ± 0.02 | 0.17 ± 0.02 | uncompetitive |  | 2250 ± 240 | 4240 ± 230 | uncompetitive | not affecting | 340 ± 60 | 880 ± 50 | uncompetitive | 1090 ± 60 | 520 ± 50 | COc1cc(O)c(CC=C(C)C)c2c1C(=O)CC(c1ccc(O)cc1)O2 (stereo not shown) [IX, isoxanthohumol] |  |  |
| 9.11 ± 1.02 | 5.29 ± 0.95 | non-competitive |  | 20100 ± 3730 | 41400 ± 6860 | uncompetitive | not affecting | 15100 ± 1650 | 29200 ± 2300 | uncompetitive | 6560 ± 690 | 4560 ± 980 | COc1cc(O)c(CC=C(C)C)c(O)c1C(=O)/C=C/c1ccc(O)cc1 [XN, xanthohumol] |  |  |

Continued, compound first:

| Compound | IC50 (AKR1B1 [2]) [µM] | Ki (AKR1B1 [2]) [µM] | mode of inhibition with respect to the co-factor binding site for NADPH (AKR1B1 [2]) | inhibitory potency, times greater as compared to that of 6-PN (AKR1B1 [2]; ratio of AKR1B1 IC50 values, glyceraldehyde as substrate) [times] | Ki (AKR1B10 [3]) [nM] | IC50 (AKR1B10 [3]) [nM] | mode of inhibition (AKR1B10 [3]) | effect on the activity of AKR1A1 (AKR1A1) | Ki (AKR1B1 [4]) [nM] | IC50 (AKR1B1 [4]) [nM] | mode of inhibition (AKR1B1 [4]) | IC50 (AKR1B10 [5]) [nM] | Ki (AKR1B10 [5]) [nM] | IC50 (AKR1B1 [1]) [nM] | IC50 (AKR1B10 [6]) [nM] |
| --- | --- | --- | --- | --- | --- | --- | --- | --- | --- | --- | --- | --- | --- | --- | --- |
| CC(C)=CCc1c(O)cc2c(c1O)C(=O)C[C@@H](c1ccc(O)cc1)O2 [6-PN, 6-prenylnaringenin] |  |  |  |  |  |  |  |  |  |  |  |  |  | 6200 |  |
| C[C@@]12CCC[C@H]1[C@@H]1C[C@@H](O)[C@@]3(O)C[C@@H](O)CC[C@]3(CO)[C@H]1CC2 [Androst-3β,5α,6β,19-tetrol] |  |  |  |  |  |  |  |  |  |  |  |  |  |  | 860 |
| CC1(C)CC[C@]2(C(=O)O)CC[C@]3(C)C(=CC[C@@H]4[C@@]5(C)CC[C@H](O)C(C)(C)[C@@H]5CC[C@]43C)[C@@H]2C1 [oleanolic acid] |  |  |  |  |  |  |  |  |  |  |  |  |  |  | 90 |
